In series [1] the test system is THP-1 cells. In words: In vitro cytokine release assay of BNc. The series is classed as cell-based, human. The conditions noted are these: THP-1, 100 μg/mL (LPS 3 μg/mL), 24 h. The procedure: The immunogenicity of the prepared BNc along with the bare PLGA NP were tested for its immunoregulatory potential using standard cytokine release assay. In brief, 8×10^5 THP-1 cells were seeded in a 12-well plate and treated with bare PLGA NP (100 μg/mL), NKM (100 μg/mL), Gd-lipid (100 μg/mL) and BNc (100 μg/mL) at 37° C. for 24 h. After 24 h incubation, cell culture supernatants were collected, centrifuged, removed cell debris and stored at −20° C. as small aliquots. For cytokine assay, samples were thawed and analyzed for pro-inflammatory cytokines, IL-1β (LOD: 1.7 pg/ml), IL-6 (LOD: 1.5 pg/mL), and TNF-α (LOD: 1 pg/mL) using Magnetic Human Cytokine Multiplex Assays Kit (R&D Systems, Inc. Minneapolis, MN) in Luminex MagPix® instrument (Millipore Inc.) as per the manufacturer recommendations. For positive control, cells were dosed with 3 μg/mL of lipopolysaccharide (LPS) for 24 h.

The test system of series [2] is MCF-7 cells. In words: MTT assay. It is filed as cell-based, human. The note with it: MCF-7, DOX 0.5-15 μM, 24 h. The method, then:
(§1) For MTT analysis, MCF-7 cells and NHost cells were treated with NKsomes with different DOX concentration along with free DOX and bare NKsomes. In brief, 2×10^4 cells per well in the respective medium were seeded in a 96-well plate and incubated for 24 h. While the cell reaches 80% confluence, the media was replaced with different DOX concentration of free DOX and NKsomes (0.5, 1.5, 3, 5, 10 and 15 uM) and incubated for additional 24 h. Control cells were maintained without DOX treatment. After incubation, MTT dye was added according to the manual instruction and further incubated for 3 h. The insoluble formation crystals were solubilized using DMSO, and the absorbance was read at 590 and 630 nm using microplate reader (BioTek, Synergy H1 Hybrid reader).
For orientation: Tetrazolium dyes change colour on reduction, which living cells bring about.

The test system of another series is NHost cells. In words: MTT assay. It is filed as cell-based, human. The note with it: DOX 0.5-15 μM, 24 h. The method, then: as §1
The next series deals with NHost. The experiment in a line: Cell cycle analysis (propidium iodide, FACS). It is filed as cell-based, human. The note with it: DOX 5 μM, 12 h. The procedure: (§2) The in vitro cytotoxicity of DOX@NKsome and the equivalent Free DOX were investigated against MCF-7 cells and NHost using a cell cycle analysis and an MTT assay. For cell cycle analysis, 1×10^6 cells were treated with 5 μM of Free DOX, equivalent DOX@NKsomes and bare NKsomes (equivalent to DOX-loaded) for 12 h. After incubation, cells were harvested, fixed in 70% ethanol overnight, washed with PBS twice and then followed propidium iodide staining. Further, the samples were analyzed in FACS Calibur for cell cycle analysis.

Series [3] concerns MCF-7 cells. The experiment in a line: Cell cycle analysis (propidium iodide, FACS). The series is classed as cell-based, human. The note with it: MCF-7, DOX 5 μM, 12 h. The method, then: as §2
For series [4], the system named is MCF-7 induced solid tumor model. In words: In vivo anti-tumor therapy. More on the design: species or system NU/NU nude mice. The procedure:
The anti-tumor efficacy of DOX@NKsomes was determined along with free DOX and unloaded NKsomes (aka “empty” NKsomes) using MCF-7 induced solid tumor model in immunodeficient NU/NU nude mice (n=3). In brief, 1×10^6 MCF-7 cells in PBS was injected subcutaneously into the hind rear flank region of the mice and the tumor growth is monitored periodically. When the tumor size reached 4-5 mm, animals received 4 cycles of drug treatment at Day 1, 4, 7 and 10 [DOX@NKsomes and free DOX (equivalent DOX concentration of 5 mg/kg)] up to 3 weeks. Control groups were also maintained without any treatment and bare NKsomes (10 mg/kg). During the study, body weight and tumor volume of the animal groups were monitored periodically to assess the therapeutic effects. The tumor volume (V) was determined using V=L×W2/2, where L=length of the tumor and W=width of the tumor. At the end of the study, animals were euthanized, collected tumors and measured its size and weight. Further, the tumor tissues were embedded in OCT, cryosectioned and subjected to immunofluorescence for the qualitative accumulation of NKsomes in tumor tissues by assessing the NKM protein marker (CD 56).

Series [5] concerns THP-1 cells. The experiment in a line: In vitro immunogenicity cytokine release assay (ELISA). The note with it: THP-1, 24 h incubation. It is filed as cell-based, human. The procedure: The immunogenicity of NKsomes in THP-1 cells were tested for its inflammatory response using a cytokine release assay. In brief, 7.5×10^5 THP-1 cells were seeded in 12-well plate and treated with isolated NKM (100 μg/mL), NKsomes (100 μg/mL), Free DOX (5 μg/mL), DOX@NKsomes (equivalent DOX load) and Bare liposomes (100 μg/mL) for 24 h incubation. Positive (LPS, 3 μg/mL) and negative controls were maintained for assessing pro-inflammatory cytokines in THP-1 cells. The treated cell culture supernatants were collected, centrifuged to remove cell debris, aliquot and stored at −20° C. until needed. Samples were thawed and used for analyzing pro-inflammatory cytokines, IL-1β (0.8 pg/ml), IL-6 (0.4 pg/mL) and TNF-α (0.7 pg/mL) using quantitative enzyme-linked immunosorbent assay KIT (ELISA) (R&D Systems, Inc. Minneapolis, MN) as recommended by the manufacturer. Sample […] was measured at 450 nm with the wavelength correction at 540 nm using Synergy H1 hybrid microplate reader (BioTek Instruments Inc. VT).

The results in this text go back to US12514935B2, “Nanocarrier systems for imaging and delivery of active agents” (Kansas State University Research Foundation, priority 2018, dated 2026).

In the case of lipopolysaccharide [LPS], in the series with THP-1 cells [1], the “immunogenicity (IL-1β, IL-6, TNF-α release)” value is “elevated levels of IL-1β, IL-6, and TNF-α”.

On to `COc1cccc2c1C(=O)c1c(O)c3c(c(O)c1C2=O)C[C@@](O)(C(=O)CO)C[C@@H]3O[C@H]1C[C@H](N)[C@H](O)[C@H](C)O1` [Free DOX, doxorubicin], for which the “in vitro cytotoxicity (MTT)” value is given as “Dose-dependent cytotoxicity” with MCF-7 cells [2] and “superior toxicity” with NHost cells. Also, the G1 fraction with NHost is given as 53.3%; in the series on MCF-7 cells [3], 53%. In addition, the G2 fraction with NHost was 23.6%; in the series with MCF-7 cells [3], 25%. The “tumor inhibition rate (IR %)” value in series [4] (DOX 5 mg/kg or bare NKsomes 10 mg/kg, Day 1, 4, 7, 10, from tumor weight) worked out at 63.69%. In series [4] (end of study), this compound displayed an average tumor weight of 0.3 ± 0.04 g. Further, the tumor volume change result in series [4] (end of treatment period) is recorded as “significant reduction in tumor volume”. The “immunogenicity (pro-inflammatory cytokines)” value with THP-1 cells [5] is “little elevation of IL-10 and TNF-α levels”.
